Data reported in ChEMBL document CHEMBL1135051, “N-arylalkylpiperidines as high-affinity sigma-1 and sigma-2 receptor ligands: phenylpropylamines as potential leads for selective sigma-2 agents” (Bioorg Med Chem Lett, 2002).

Columns and labels:
[1] = target: Sigma non-opioid intracellular receptor 1 (Rattus norvegicus, UniProt Q9R0C9); experiment: Binding affinity for sigma-1 receptor by displacing [3H]-(+) pentazocine
[2] = target: Sigma 2 receptor; experiment: Binding affinity for sigma-2 receptor by displacing [3H]DTG in presence of dextrallorphan; parameters: species or system Rattus norvegicus

Sigma non-opioid intracellular receptor 1, sequence (Q9R0C9 whole entry): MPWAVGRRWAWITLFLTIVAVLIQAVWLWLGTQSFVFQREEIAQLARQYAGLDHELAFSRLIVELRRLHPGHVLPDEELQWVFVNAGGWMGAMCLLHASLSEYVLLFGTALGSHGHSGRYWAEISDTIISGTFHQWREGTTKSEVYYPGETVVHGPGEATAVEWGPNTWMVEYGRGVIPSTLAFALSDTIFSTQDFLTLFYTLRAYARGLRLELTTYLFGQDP

For `c1ccc(CCN2CCN(c3ccccn3)CC2)cc1`, the Ki [1] was 326 nM and the Ki [2] was 119 nM.

In the case of `CC1CCCN(CCc2ccccc2)C1` (stereo not given), the Ki [1] is reported as 4.15 nM and the Ki [2] is reported as 84.4 nM.

`c1ccc(CCCN2CCN(c3ccccn3)CC2)cc1` gave a Ki [1] of 82.9 nM and a Ki [2] of 4.91 nM.

`c1ccc(CCCN2CCc3ccccc3C2)cc1` showed a Ki [1] of 13.9 nM and a Ki [2] of 14.2 nM.

Molecule `c1ccc(CCN2CCc3ccccc3C2)cc1` has a Ki [1] of 5.9 nM and a Ki [2] of 57.3 nM.

Molecule `CC1CCCN(CCCc2ccccc2)C1` (stereo not given) has a Ki [1] of 5.25 nM and a Ki [2] of 6.61 nM.

In the case of `c1ccc(CCCN2CCCCC2)cc1`, the Ki [1] is reported as 143 nM and the Ki [2] is reported as 25 nM.

With `CC1CCN(CCc2ccccc2)CC1` the Ki [1] was 20.9 nM and the Ki [2] was 33.3 nM.

Work on `CC1CCN(CCCc2ccccc2)CC1` yielded a Ki [1] of 3.35 nM and a Ki [2] of 12.1 nM.

For `c1ccc(CCN2CCCCC2)cc1` [1-PHENETHYLPIPERIDINE], the Ki [1] was 88.5 nM and the Ki [2] was 112 nM.
